These results are taken from patent publication US20250163057A1, “DCN-1 MODULATING COMPOUNDS AND METHODS OF USE THEREOF” (Cellarity, Inc., priority 2023, published 2025).

Each structure is given as a SMILES string. Like-named read-outs stand apart in the source and are kept apart here.

One experiment addresses DCN1 protein (Homo sapiens (Human), UniProt Q96GG9). The experiment is described as follows: Intact Protein MS Analysis with the RapidFire-TOF System (covalent adduct formation). Type of experiment: binding. The note with it: MS Emax; 400 nM DCN1, 3 hours at room temperature. Summed up: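 Tag-cleaved human DCN1 (400 nM) expressed in E. coli, in 25 mM Tris-HCl, 200 mM NaCl, 1 mM DTT, was incubated with 11 compound concentrations for 3 h at room temperature and quenched with 0.2% formic acid. Intact-protein Q-TOF MS with deconvolution detected the compound adduct mass.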

Experiment [1] deals with Cullin-3 (CUL3) neddylation. The experiment is described as follows: AlphaLISA assay for Cullin-3 (CUL3) neddylation in TF 1 cells. Type of experiment: cell-based. The note with it: Homo sapiens, 3 hours treatment. In short, it runs like this:
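TF 1 cells in unsupplemented IMDM treated with compound concentrations for 3 h, then lysed. CUL3 neddylation detected by AlphaLISA (biotinylated anti-NEDD8, anti-CUL3 acceptor beads overnight, streptavidin donor beads 1 h); normalized to vehicle (0%) and 1 μM DI-1548 (100%), IC50 from Hill fits.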

Experiment [2] addresses DCN1 (DCUND1) protein PONY domain (Homo sapiens (Human), UniProt Q96GG9). Nature of the experiment: TR-FRET assay, DCN1 binding with FAM-labeled probe. In short, it runs like this: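 Binding was read as the TR-FRET ratio between a FAM-tagged inhibitor probe and Tb-labeled biotinylated E. coli-expressed DCN1 PONY domain, measured 1, 5 and 24 h after compound addition. The two setups used 5 nM protein/20 nM FAM-probe or 0.31 nM protein/900 nM total probe (100 nM labeled), in TritonX buffer with 200 mM NaCl.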
In general terms: Time-resolved FRET reads energy transfer from a long-lived donor to a nearby acceptor.

Setting [3] is: 24 hr after treatment with compound, read-out: TR FRET IC50 24 hr.
[4] abbreviates: read-out: TR FRET IC50 1 hr, 1 hr after treatment with compound.
Setting [5] is: TR FRET IC50 1 hr (nM), 1 hr after treatment with compound.

Chain of DCN1 protein (Q96GG9 whole entry): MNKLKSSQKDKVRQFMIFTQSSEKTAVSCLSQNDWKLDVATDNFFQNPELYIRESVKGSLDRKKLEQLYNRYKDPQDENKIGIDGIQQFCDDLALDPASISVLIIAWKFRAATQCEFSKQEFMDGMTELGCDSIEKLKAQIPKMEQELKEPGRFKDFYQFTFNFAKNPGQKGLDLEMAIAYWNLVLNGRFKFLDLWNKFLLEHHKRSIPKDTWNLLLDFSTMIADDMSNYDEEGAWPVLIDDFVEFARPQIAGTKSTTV
Chain of DCN1 (DCUND1) protein PONY domain (Q96GG9 60-248): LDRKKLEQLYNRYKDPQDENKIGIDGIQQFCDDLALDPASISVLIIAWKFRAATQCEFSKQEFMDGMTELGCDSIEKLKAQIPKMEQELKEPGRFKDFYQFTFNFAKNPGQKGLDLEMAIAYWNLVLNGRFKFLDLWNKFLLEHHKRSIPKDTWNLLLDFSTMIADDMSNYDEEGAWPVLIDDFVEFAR

On to `CCN1C(=O)[C@@H](NC(=O)c2cccc(C(F)(F)F)n2)[C@@H](C2CC2)c2c(C(=O)N3[C@H](C#N)C[C@H]4C[C@H]43)nn(C3CCOCC3)c21` [Compound I-390], for which the “% Adduct Formation” value at DCN1 protein is “+++ (MS Emax % adduct formation greater than 80.0 and less than or equal to 100.0)”. In addition, the IC50 in experiment [1] was not above 0.1 µM; in experiment [2] (setting [3]), not above 200 nM; in experiment [2] (setting [4]), not above 200 nM.
For `CCN1C(=O)[C@@H](NC(=O)c2cccc(C(F)(F)F)c2)[C@@H](c2ccc(C)cc2)c2c(C(=O)N(C)C(C)C#N)nn(C3CC3)c21` (stereo partly drawn) [Compound I-306], the “% Adduct Formation” value on DCN1 protein was “++ (MS Emax % adduct formation greater than 30.0 and less than or equal to 80.0)”. Also, the IC50 was not above 0.1 µM in experiment [1] (TF-1, 3 h); not above 200 nM in experiment [2] (setting [3]); not above 200 nM in experiment [2] (setting [4]).
Take `CCN1C(=O)[C@@H](NC(=O)c2cccc(C(F)(F)F)c2)[C@@H](c2ccc(F)cc2)c2c(C(=O)N3CCC[C@H]3C#N)nn(C3CC3)c21` [Compound I-354]: the “% Adduct Formation” value at DCN1 protein was “++ (MS Emax % adduct formation greater than 30.0 and less than or equal to 80.0)”. The IC50 in experiment [1] (TF-1, 3 h) is not above 0.1 µM; in experiment [2] (setting [3]) it was not above 200 nM; in experiment [2] (setting [4]), not above 200 nM.
Consider `CCN1C(=O)[C@@H](NC(=O)c2cccc(C(F)(F)F)c2)[C@@H](c2ccc(F)cc2)c2c(C(=O)N(CC#N)CCN3CC4CCC(C3)O4)nn(-c3ccccc3)c21` (mixture of isomers) [Compound I-324], for which the “% Adduct Formation” value at DCN1 protein was “+++ (MS Emax % adduct formation greater than 80.0 and less than or equal to 100.0)”. In addition, the IC50 in experiment [1] (TF-1, 3 h) is not above 0.1 µM; in experiment [2] (setting [3]), not above 200 nM; in experiment [2] (setting [5]), 200 to 1000 nM.
As for `CCN1C(=O)[C@@H](NC(=O)c2cccc(C(F)(F)F)c2)[C@@H](c2ccc(F)cc2)c2c(C(=O)N3CC[C@H]3C#N)nn(-c3ccccc3)c21` [Compound I-275], the “% Adduct Formation” value on DCN1 protein was “++ (MS Emax % adduct formation greater than 30.0 and less than or equal to 80.0)”. In addition, the IC50 in experiment [1] (TF-1, 3 h) is not above 0.1 µM; in experiment [2] (setting [3]), not above 200 nM; in experiment [2] (setting [4]), not above 200 nM.
With `CCN1C(=O)[C@@H](NC(=O)c2cccc(C(F)(F)F)c2)[C@@H](c2ccc(F)cc2)c2c(C(=O)N(C)[C@H](C#N)CCN3CC4CC(C3)O4)nn(-c3ccccc3)c21` [Compound I-312], on DCN1 protein, the “% Adduct Formation” value is “+++ (MS Emax % adduct formation greater than 80.0 and less than or equal to 100.0)”. For the same compound, the IC50 was not above 0.1 µM in experiment [1] (TF-1, 3 h); not above 200 nM in experiment [2] (setting [3]); not above 200 nM in experiment [2] (setting [4]).
Regarding `CCN1C(=O)[C@@H](NC(=O)c2cccc(C(F)(F)F)c2)[C@@H](c2ccc(F)cc2)c2c(C(=O)N(C)[C@H](C#N)CCN3CCC34COC4)nn(-c3ccccc3)c21` [Compound I-314], at DCN1 protein, the “% Adduct Formation” value was “+++ (MS Emax % adduct formation greater than 80.0 and less than or equal to 100.0)”. Moreover, the IC50 in experiment [1] (TF-1, 3 h) is not above 0.1 µM; in experiment [2] (setting [3]), not above 200 nM; in experiment [2] (setting [4]) it was not above 200 nM.
For the compound `CCCn1nc(C(=O)N2[C@H](C#N)C[C@H]3C[C@H]32)c2c1N(CC)C(=O)[C@@H](NC(=O)c1cccc(C(F)(F)F)c1)[C@H]2C1CC1` [Compound I-328], the “% Adduct Formation” value at DCN1 protein is “+++ (MS Emax % adduct formation greater than 80.0 and less than or equal to 100.0)”. The IC50 in experiment [1] (TF-1, 3 h) was not above 0.1 µM; in experiment [2] (setting [3]), not above 200 nM; in experiment [2] (setting [4]), not above 200 nM.
As to `CCN1C(=O)[C@@H](NC(=O)c2cccc(C(F)(F)F)c2)[C@H](c2ccc(F)cc2)c2c(CC(=O)NCC#N)nn(-c3ccccc3)c21` [Compound I-298, N-((4R,5S)-3-(2-((cyanomethyl)amino)-2-oxoethyl)-7-ethyl-4-(4-fluorophenyl)-6-oxo-1-phenyl-4,5,6,7-tetrahydro-1H-pyrazolo[3,4-b]pyridin-5-yl)-3-(trifluoromethyl)benzamide], the “% Adduct Formation” value on DCN1 protein is “+ (MS Emax % adduct formation greater than or equal to 0.0 and less than or equal to 30.0)”. Also, the IC50 lay within 0.1 to 1 µM in experiment [1] (TF-1, 3 h); 200 to 1000 nM in experiment [2] (setting [3]); 200 to 1000 nM in experiment [2] (setting [5]).
Take `CCN1C(=O)[C@@H](NC(=O)c2cccc(C(F)(F)F)c2)[C@@H](c2ccc(F)cc2)c2c(C(=O)N3CCC[C@H]3C#N)nn(-c3cccc(OCCN(C)C4COC4)c3)c21` [Compound I-347]: at DCN1 protein, the “% Adduct Formation” value was “+++ (MS Emax % adduct formation greater than 80.0 and less than or equal to 100.0)”. The IC50 in experiment [1] (TF-1, 3 h) is not above 0.1 µM; in experiment [2] (setting [3]), not above 200 nM; in experiment [2] (setting [5]), 200 to 1000 nM.
Take `CCN1C(=O)[C@@H](NC(=O)c2ccn(C(F)(F)F)n2)[C@@H](c2ccc(F)cc2)c2c(C(=O)N3[C@H](C#N)C[C@H]4C[C@H]43)nn(-c3ccccc3)c21` [Compound I-344]: the “% Adduct Formation” value at DCN1 protein was “++ (MS Emax % adduct formation greater than 30.0 and less than or equal to 80.0)”. Moreover, the IC50 is not above 0.1 µM in experiment [1] (TF-1, 3 h); not above 200 nM in experiment [2] (setting [3]); 200 to 1000 nM in experiment [2] (setting [5]).
Regarding `CCN1C(=O)[C@@H](NC(=O)c2cccc(C(F)(F)F)c2)[C@@H](c2ccc(F)cc2)c2c(C(=O)N3[C@H](C#N)C[C@H]4C[C@H]43)nn(C3CC3)c21` [Compound I-330], the “% Adduct Formation” value at DCN1 protein is “+++ (MS Emax % adduct formation greater than 80.0 and less than or equal to 100.0)”. Moreover, the IC50 in experiment [1] (TF-1, 3 h) is not above 0.1 µM; in experiment [2] (setting [3]), not above 200 nM; in experiment [2] (setting [4]) it was not above 200 nM.
In the case of `CCN1C(=O)[C@@H](NC(=O)c2cccc(C(F)(F)F)c2)[C@@H](c2ccc(F)cc2)c2c(C(=O)N3CCC[C@H]3C#N)nn(-c3cccc(OCCCN4CCN(C5COC5)CC4)c3)c21` [Compound I-337], the “% Adduct Formation” value on DCN1 protein is “+++ (MS Emax % adduct formation greater than 80.0 and less than or equal to 100.0)”. Moreover, the IC50 is not above 0.1 µM in experiment [1] (TF-1, 3 h); not above 200 nM in experiment [2] (setting [3]); not above 200 nM in experiment [2] (setting [4]).
Take `CCN1C(=O)[C@@H](NC(=O)c2cccc(C(F)(F)F)c2)[C@@H](c2ccc(F)cc2)c2c(C(=O)N3CCC[C@H]3C#N)nn(-c3cccc(OCCCN(C)C4COC4)c3)c21` [Compound I-335]: on DCN1 protein, the “% Adduct Formation” value was “+++ (MS Emax % adduct formation greater than 80.0 and less than or equal to 100.0)”. Also, the IC50 is not above 0.1 µM in experiment [1] (TF-1, 3 h); not above 200 nM in experiment [2] (setting [3]); 1000 to 3000 nM in experiment [2] (setting [5]).
In the case of `CCN1C(=O)[C@@H](NC(=O)c2cccc(C(F)(F)F)c2)[C@@H](C2CC2)c2c(C(=O)N3CCOC[C@H]3C#N)nn(-c3ccccc3)c21` [Compound I-382], the “% Adduct Formation” value on DCN1 protein was “+++ (MS Emax % adduct formation greater than 80.0 and less than or equal to 100.0)”. In addition, the IC50 in experiment [1] (TF-1, 3 h) was not above 0.1 µM; in experiment [2] (setting [3]), not above 200 nM; in experiment [2] (setting [5]), 200 to 1000 nM.
Consider `CCN1C(=O)[C@@H](NC(=O)c2cccc(C(F)(F)F)c2)[C@@H](c2ccc(F)cc2)c2c(C(=O)N(CC#N)CCN(C)C3COC3)nn(-c3ccccc3)c21` (racemic) [Compound I-321], for which the “% Adduct Formation” value at DCN1 protein was “+++ (MS Emax % adduct formation greater than 80.0 and less than or equal to 100.0)”. The IC50 in experiment [1] (TF-1, 3 h) is not above 0.1 µM; in experiment [2] (setting [3]), not above 200 nM; in experiment [2] (setting [4]) it was not above 200 nM.
`CCN1C(=O)[C@@H](NC(=O)c2ccc3c(c2)CCC3)[C@@H](C2CC2)c2c(C(=O)N3[C@H](C#N)C[C@H]4C[C@H]43)nn(C3CCOCC3)c21` [Compound I-391]: the “% Adduct Formation” value on DCN1 protein was “+++ (MS Emax % adduct formation greater than 80.0 and less than or equal to 100.0)”. The IC50 in experiment [1] was not above 0.1 µM; in experiment [2] (setting [3]), not above 200 nM; in experiment [2] (setting [4]) it was not above 200 nM.
For `CCN1C(=O)[C@@H](NC(=O)c2cccc(C(F)(F)F)c2)[C@@H](c2ccc(F)cc2)c2c(C(=O)N(CC#N)C3CC3)nn(C3CCOCC3)c21` [Compound I-351], the “% Adduct Formation” value at DCN1 protein was “+++ (MS Emax % adduct formation greater than 80.0 and less than or equal to 100.0)”. Moreover, the concentration for half-maximal inhibition (IC50) in experiment [1] (TF-1, 3 h) is not above 0.1 µM; in experiment [2] (setting [3]), not above 200 nM; in experiment [2] (setting [4]), not above 200 nM.
As to `CCN1C(=O)[C@@H](NC(=O)c2cccc(C(F)(F)F)c2)[C@@H](c2ccc(F)cc2)c2c(C(=O)N(CC#N)CCN3CCOCC3)nn(-c3ccccc3)c21` (racemic) [Compound I-320], the “% Adduct Formation” value at DCN1 protein was “+++ (MS Emax % adduct formation greater than 80.0 and less than or equal to 100.0)”. Besides, the IC50 in experiment [1] (TF-1, 3 h) was not above 0.1 µM; in experiment [2] (setting [3]) it was not above 200 nM; in experiment [2] (setting [4]), not above 200 nM.
For `CCN1C(=O)[C@@H](NC(=O)c2cccc3c2OCO3)[C@@H](C2CC2)c2c(C(=O)N3[C@H](C#N)C[C@H]4C[C@H]43)nn(C3CCOCC3)c21` [Compound I-397], the “% Adduct Formation” value on DCN1 protein is “+++ (MS Emax % adduct formation greater than 80.0 and less than or equal to 100.0)”. Besides, the IC50 in experiment [1] is not above 0.1 µM; in experiment [2] (setting [3]), not above 200 nM; in experiment [2] (setting [4]), not above 200 nM.
In the case of `CCN1C(=O)[C@@H](NC(=O)c2cccc(C(F)(F)F)c2)[C@@H](C2CC2)c2c(C(=O)N3[C@H](C#N)C[C@H]4C[C@H]43)nn(C3CC3)c21` [Compound I-327], on DCN1 protein, the “% Adduct Formation” value is “+++ (MS Emax % adduct formation greater than 80.0 and less than or equal to 100.0)”. Also, the IC50 is not above 0.1 µM in experiment [1] (TF-1, 3 h); not above 200 nM in experiment [2] (setting [3]); not above 200 nM in experiment [2] (setting [4]).

By IC50 is commonly meant the concentration that gives 50% inhibition.
